Reference: patent US20090169474A1, “METHOD FOR NONINVASNELY AND QUANTITATIVELY MONITORING THERAPEUTIC AND DIAGNOSTIC TRANSGENE EXPRESSION INDUCED BY EX VNO AND IN VNO GENE TARGETING IN ORGANS, TISSUES AND CELLS” (The Regentsf of the University of California, priority 2006, published 2009)

Assays:
[1] = system: HSV1-sr39tk reporter gene expression in cardiac allografts; assay: Micro-PET imaging of [18F]FHBG / [18F]FDG accumulation; assay type: in vivo; conditions: recipient rabbit with gene transfected donor heart in the neck
Procedure: Micro-PET scan was performed on postoperative days 2, 4, 6, 8, 12, 20, and 28 in the IL-10 gene therapy group and days 2, 4, 6, and 8 in the control group. Recipient rabbits were intravenously injected with 1 mCi of [^18F]FHBG PET reporter probe. After a 1-h rest to allow for tracer uptake and clearance, the rabbits were imaged with a micro-PET-P4 (Primate P4; Concorde Microsystems, Inc., Knoxville, Tenn., USA) for 45 min over the neck and chest. Micro-PET image data were reconstructed by filtered back-projection and were reoriented into short, vertical, and horizontal long axis slices. From regions of interest on the anterolateral wall (short axis cut), derived counts/pixel/min were converted to counts/ml/min using a calibration constant obtained from scanning a cylindrical phantom. The regions-of-interest (ROI) counts/ml/min were converted to counts/g/min (assuming a tissue density of 1 g/ml) and divided by the injected dose to obtain an image ROI-derived [^18F]FHBG percentage injected dose per gram of heart (% ID/g). The total myocardial accumulation of [^18F]FHBG was corrected for background activity in each region of interest, summed for the 12 slices, and expressed as % ID=(total activity in 12 regions of interest (ROI), left ventricle (LV) (MBq)-total activity in 12 ROI BG (MBq))/injected dose (MBq)×100. […]

[2] = system: wild-type HSV1-tk and HSV1-sr39tk PET reporter genes; assay: In vivo imaging of PET reporter genes with reporter probes
Description: Two main categories of substrates, uracil nucleoside derivatives labelled with radioactive iodine (e.g., I-labelled 2′fluoro-2′-deoxy-1-β-D-arabinofura-nosyl-5-iodo-uracilc(FIAU)), and acycloguanosine derivatives labelled with radioactive ^18F-fluorine (e.g., 9-[(4-[^18F]-fluoro-3-hydroxymethylbutyl)guanine (FHBG) and 8-[^18F]fluropenciclorivr (FPCV)), have been investigated as reporter probes for imaging HSV1-tk reporter gene expression.

Compound	localization of probe activity on micro-PET [1]	effectiveness as probe for in vivo imaging, compared with FPCV [2]
2-[^18F]fluoro-2-deoxy-d-glucose [[^18F]FDG]	in the donor heart as well as in the recipient's heart and skeletal muscle of limb and neck	–
Nc1nc2c(ncn2CCC(CO)C[18F])c(=O)[nH]1 (stereo not drawn) [[^18F]FHBG, 9-(4-[^18F]fluoro-3-hydroxymethylbutyl)guanine]	only in targeted donor heart in the neck	more effective probe
